From PubChem BioAssay AID1963856 (Molecular Pharmacology Branch, DTP, NCI, 2024)
pIC50: −log10 of the molar value. “And” between values parts separate entries of the source, which are not always exact repeats. Identical values can stand only once. The source made the active and inactive calls. Rule for the calls: active = viability on the fitted dose curve at most 10% of control; inactive = the rest.

System: LG0567-F671-PDC KRAS tumor spheroid viability
Test: Anticancer human tumor LG0567-F671-PDC patient-derived lung adenocarcinoma cell line growth inhibition [KRAS2]
Conditions: spheroids with HUVEC and MSC; for viability, T/C: stronger effect = lower value
Method in brief: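 Combination screen of spheroid viability in tumor-cell co-cultures with endothelial (HUVEC) and mesenchymal stem cell stroma. Each agent was tested in half-log dilutions, topping at clinical Cmax or at 10 microM without a known Cmax.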

[1] = curve of first compound, second compound 0.1 µM
[2] = curve of first compound, second compound 0.316 µM
[3] = curve of first compound, second compound 1 µM
[4] = curve of first compound, second compound 3.16 µM
[5] = curve of first compound, second compound 10 µM
[6] = second compound 0.1 µM, first compound 0.000316 µM
[7] = second compound 0.1 µM, first compound 0.001 µM
[8] = second compound 0.1 µM, first compound 0.00316 µM
[9] = second compound 0.1 µM, first compound 0.01 µM
[10] = second compound 0.1 µM, first compound 0.0316 µM
[11] = second compound 0.1 µM, first compound 0.1 µM
[12] = second compound 0.316 µM, first compound 0.000316 µM
[13] = second compound 0.316 µM, first compound 0.001 µM
[14] = second compound 0.316 µM, first compound 0.00316 µM
[15] = second compound 0.316 µM, first compound 0.01 µM
[16] = second compound 0.316 µM, first compound 0.0316 µM
[17] = second compound 0.316 µM, first compound 0.1 µM
[18] = second compound 1 µM, first compound 0.000316 µM
[19] = second compound 1 µM, first compound 0.001 µM
[20] = second compound 1 µM, first compound 0.00316 µM
[21] = second compound 1 µM, first compound 0.01 µM
[22] = second compound 1 µM, first compound 0.0316 µM
[23] = second compound 1 µM, first compound 0.1 µM
[24] = second compound 3.16 µM, first compound 0.000316 µM
[25] = second compound 3.16 µM, first compound 0.001 µM
[26] = second compound 3.16 µM, first compound 0.00316 µM
[27] = second compound 3.16 µM, first compound 0.01 µM
[28] = second compound 3.16 µM, first compound 0.0316 µM
[29] = second compound 3.16 µM, first compound 0.1 µM
[30] = second compound 10 µM, first compound 0.000316 µM
[31] = second compound 10 µM, first compound 0.001 µM
[32] = second compound 10 µM, first compound 0.00316 µM
[33] = second compound 10 µM, first compound 0.01 µM
[34] = second compound 10 µM, first compound 0.0316 µM
[35] = second compound 10 µM, first compound 0.1 µM
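Throughout, for pIC50: drug exposure lasted seven days after spheroids formed for three days.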
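Throughout, for viability, T/C: drug exposure lasted seven days after spheroids formed for three days; 100% = DMSO vehicle control viability.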

## CC(C)n1nc(-c2ccc3oc(N)nc3c2)c2c(N)ncnc21 + CC1OCC2(CCN(c3cnc(Sc4ccnc(N)c4Cl)c(N)n3)CC2)C1N
[1]
  pIC50: > 9.50
[2]
  pIC50: > 9.50
[3]
  pIC50: > 9.50
[4]
  pIC50: > 9.50
[5]
  pIC50: > 9.50
[6]
  viability, T/C: 43.3%
[7]
  viability, T/C: 48.6%
[8]
  viability, T/C: 25.5%
[9]
  viability, T/C: 18%
[10]
  viability, T/C: 16.2%
[11]
  viability, T/C: 10.6%
[12]
  viability, T/C: 35.9%
[13]
  viability, T/C: 29%
[14]
  viability, T/C: 21%
[15]
  viability, T/C: 11.8%
[16]
  viability, T/C: 7.3%
[17]
  viability, T/C: 6.32%
[18]
  viability, T/C: 25.8%
[19]
  viability, T/C: 18.8%
[20]
  viability, T/C: 11.4%
[21]
  viability, T/C: 5.96%
[22]
  viability, T/C: 4.63%
[23]
  viability, T/C: 3.58%
[24]
  viability, T/C: 17.4%
[25]
  viability, T/C: 12%
[26]
  viability, T/C: 6.04%
[27]
  viability, T/C: 2.59%
[28]
  viability, T/C: 2.37%
[29]
  viability, T/C: 1.36%
[30]
  viability, T/C: 7.01%
[31]
  viability, T/C: 5.93%
[32]
  viability, T/C: 3.89%
[33]
  viability, T/C: 2.31%
[34]
  viability, T/C: 1.59%
[35]
  viability, T/C: 1.8%

## O=C(c1cc(Cc2n[nH]c(=O)c3ccccc23)ccc1F)N1CCN(C(=O)C2CC2)CC1 + C=CC(=O)N1CCN(c2nc(=O)n(-c3c(C)ccnc3C(C)C)c3nc(-c4c(O)cccc4F)c(F)cc23)C(C)C1
[1]
  pIC50: > 7.50
[2]
  pIC50: > 7.50
[3]
  pIC50: > 7.50
[4]
  pIC50: > 7.50
[5]
  pIC50: > 7.50
[10]
  viability, T/C: 24.8%
[11]
  viability, T/C: 21.5%
Second compound 0.1 µM, first compound 0.316 µM
  viability, T/C: 23.1%
Second compound 0.1 µM, first compound 1 µM
  viability, T/C: 26.7%
Second compound 0.1 µM, first compound 3.16 µM
  viability, T/C: 29.2%
Second compound 0.1 µM, first compound 10 µM
  viability, T/C: 33.6%
[16]
  viability, T/C: 23.1%
[17]
  viability, T/C: 22.8%
Second compound 0.316 µM, first compound 0.316 µM
  viability, T/C: 25.1%
Second compound 0.316 µM, first compound 1 µM
  viability, T/C: 21.5%
Second compound 0.316 µM, first compound 3.16 µM
  viability, T/C: 26.9%
Second compound 0.316 µM, first compound 10 µM
  viability, T/C: 30.4%
[22]
  viability, T/C: 25.8%
[23]
  viability, T/C: 25.6%
Second compound 1 µM, first compound 0.316 µM
  viability, T/C: 25.2%
Second compound 1 µM, first compound 1 µM
  viability, T/C: 23.6%
Second compound 1 µM, first compound 3.16 µM
  viability, T/C: 25.4%
Second compound 1 µM, first compound 10 µM
  viability, T/C: 30.4%
[28]
  viability, T/C: 25.1%
[29]
  viability, T/C: 27.8%
Second compound 3.16 µM, first compound 0.316 µM
  viability, T/C: 25.7%
Second compound 3.16 µM, first compound 1 µM
  viability, T/C: 23.8%
Second compound 3.16 µM, first compound 3.16 µM
  viability, T/C: 23.9%
Second compound 3.16 µM, first compound 10 µM
  viability, T/C: 31.8%
[34]
  viability, T/C: 32.1%
[35]
  viability, T/C: 32.1%
Second compound 10 µM, first compound 0.316 µM
  viability, T/C: 31.9%
Second compound 10 µM, first compound 1 µM
  viability, T/C: 30%
Second compound 10 µM, first compound 3.16 µM
  viability, T/C: 30.4%
Second compound 10 µM, first compound 10 µM
  viability, T/C: 28.3%

## CN(C)C/C=C/C(=O)Nc1cc2c(Nc3ccc(F)c(Cl)c3)ncnc2cc1O[C@H]1CCOC1 + C=CC(=O)N1CCN(c2nc(=O)n(-c3c(C)ccnc3C(C)C)c3nc(-c4c(O)cccc4F)c(F)cc23)C(C)C1
[1]
  pIC50: > 9.50
[2]
  pIC50: > 9.50
[3]
  pIC50: > 9.50
[4]
  pIC50: > 9.50
[5]
  pIC50: > 9.50
[6]
  viability, T/C: 32.6%
[7]
  viability, T/C: 26.2%
[8]
  viability, T/C: 23.1%
[9]
  viability, T/C: 18.4%
[10]
  viability, T/C: 15.4%
[11]
  viability, T/C: 26.1%
[12]
  viability, T/C: 28.6%
[13]
  viability, T/C: 28.2%
[14]
  viability, T/C: 26.1%
[15]
  viability, T/C: 21.6%
[16]
  viability, T/C: 24.1%
[17]
  viability, T/C: 28.4%
[18]
  viability, T/C: 25.1%
[19]
  viability, T/C: 24.7%
[20]
  viability, T/C: 24.5%
[21]
  viability, T/C: 26.2%
[22]
  viability, T/C: 27.5%
[23]
  viability, T/C: 24.4%
[24]
  viability, T/C: 18.6%
[25]
  viability, T/C: 22.9%
[26]
  viability, T/C: 26.1%
[27]
  viability, T/C: 14.5%
[28]
  viability, T/C: 21.8%
[29]
  viability, T/C: 22.5%
[30]
  viability, T/C: 23%
[31]
  viability, T/C: 22.9%
[32]
  viability, T/C: 15.8%
[33]
  viability, T/C: 13.1%
[34]
  viability, T/C: 18.5%
[35]
  viability, T/C: 13.3%

## CC(C)NCC(C(=O)N1CCN(c2ncnc3c2C(C)CC3O)CC1)c1ccc(Cl)cc1 (configuration not stated)
Compound 0.0316 µM
  viability, T/C: 101% [middle of 5 runs]
Compound 0.1 µM
  viability, T/C: 83.4% [middle of 5 runs]
Compound 0.316 µM
  viability, T/C: 65.9% [middle of 5 runs]
Compound 1 µM
  viability, T/C: 71.3% [middle of 5 runs]
Compound 10 µM
  viability, T/C: 72.5% [middle of 4 runs]
  outcome: active
Curve of compound
  pIC50: < 5.00 and 5.93
